Values joined by “and” are separate entries in the source; they are usually repeats but may differ in a detail not shown here. Equal entries are not always repeated.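 1) Cells in 96-well plates. 2) Compound, 48 h, 5 concentrations. 3) Linear interpolation between surrounding doses. 4) Unreached endpoint = highest concentration. GI50 marks 50% less growth. TGI: concentration producing complete growth inhibition.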
Legend:
Assay in all cases: growth of human tumour cells (NCI), 48 h
786-0 renal = tested on: 786-0 renal
A498 renal = tested on: A498 renal
A549 NSCLC = tested on: A549 NSCLC
ACHN renal = tested on: ACHN renal
BT-549 breast = tested on: BT-549 breast
CAKI-1 renal = tested on: CAKI-1 renal
CCRF-CEM leukemia = tested on: CCRF-CEM leukemia
COLO 205 colon = tested on: COLO 205 colon
DU-145 prostate = tested on: DU-145 prostate
EKVX NSCLC = tested on: EKVX NSCLC
HCC-2998 colon = tested on: HCC-2998 colon
HCT-116 colon = tested on: HCT-116 colon
HCT-15 colon = tested on: HCT-15 colon
HL-60(TB) leukemia = tested on: HL-60(TB) leukemia
HOP-62 NSCLC = tested on: HOP-62 NSCLC
HOP-92 NSCLC = tested on: HOP-92 NSCLC
HS 578T breast = tested on: HS 578T breast
HT29 colon = tested on: HT29 colon
IGROV1 ovarian = tested on: IGROV1 ovarian
K-562 leukemia = tested on: K-562 leukemia
KM12 colon = tested on: KM12 colon
LOX IMVI melanoma = tested on: LOX IMVI melanoma
M14 melanoma = tested on: M14 melanoma
MALME-3M melanoma = tested on: MALME-3M melanoma
MCF7 breast = tested on: MCF7 breast
MDA-MB-231 breast = tested on: MDA-MB-231 breast
MDA-MB-435 = tested on: MDA-MB-435
MOLT-4 leukemia = tested on: MOLT-4 leukemia
NCI-H226 lung = tested on: NCI-H226 lung
NCI-H23 lung = tested on: NCI-H23 lung
NCI-H460 lung = tested on: NCI-H460 lung
NCI-H522 lung = tested on: NCI-H522 lung
NCI/ADR-RES ovarian = tested on: NCI/ADR-RES ovarian
OVCAR-3 ovarian = tested on: OVCAR-3 ovarian
OVCAR-4 ovarian = tested on: OVCAR-4 ovarian
OVCAR-5 ovarian = tested on: OVCAR-5 ovarian
OVCAR-8 ovarian = tested on: OVCAR-8 ovarian
PC-3 prostate = tested on: PC-3 prostate
RPMI-8226 leukemia = tested on: RPMI-8226 leukemia
RXF 393 renal = tested on: RXF 393 renal
SF-268 CNS = tested on: SF-268 CNS
SF-295 CNS = tested on: SF-295 CNS
SF-539 CNS = tested on: SF-539 CNS
SK-MEL-2 melanoma = tested on: SK-MEL-2 melanoma
SK-MEL-28 melanoma = tested on: SK-MEL-28 melanoma
SK-MEL-5 melanoma = tested on: SK-MEL-5 melanoma
SK-OV-3 ovarian = tested on: SK-OV-3 ovarian
SN12C renal = tested on: SN12C renal
SNB-19 CNS = tested on: SNB-19 CNS
SNB-75 CNS = tested on: SNB-75 CNS
SR leukemia = tested on: SR leukemia
SW-620 colon = tested on: SW-620 colon
T-47D breast = tested on: T-47D breast
TK-10 renal = tested on: TK-10 renal
U251 CNS = tested on: U251 CNS
UACC-257 melanoma = tested on: UACC-257 melanoma
UACC-62 melanoma = tested on: UACC-62 melanoma
UO-31 renal = tested on: UO-31 renal

SMILES: NS(=O)(=O)c1ccc(N=Cc2c(O)[nH]c3ccc4ncsc4c23)cc1
- GI50 (786-0 renal): 1.02 µM and 3.67 µM
- TGI (786-0 renal): > 25 µM and 18.8 µM
- GI50 (A498 renal): 3.69 µM and 6.71 µM
- TGI (A498 renal): 9.95 µM and 14.7 µM
- GI50 (A549 NSCLC): 5.02 µM and 9.11 µM
- TGI (A549 NSCLC): > 25 µM
- GI50 (ACHN renal): 2.2 µM and 5.31 µM
- TGI (ACHN renal): > 25 µM
- GI50 (BT-549 breast): 0.693 µM and 2.34 µM
- TGI (BT-549 breast): 2.06 µM and 9.04 µM
- GI50 (CAKI-1 renal): 5.85 µM and 6.52 µM
- TGI (CAKI-1 renal): > 25 µM
- GI50 (CCRF-CEM leukemia): 0.793 µM and 0.699 µM
- TGI (CCRF-CEM leukemia): > 25 µM
- GI50 (COLO 205 colon): 1.36 µM and 3.84 µM
- TGI (COLO 205 colon): 5.03 µM and 9.19 µM
- GI50 (DU-145 prostate): 0.394 µM and 3.03 µM
- TGI (DU-145 prostate): > 25 µM
- GI50 (EKVX NSCLC): 7.91 µM and 8.52 µM
- TGI (EKVX NSCLC): > 25 µM
- GI50 (HCC-2998 colon): 0.751 µM and 1.41 µM
- TGI (HCC-2998 colon): 3.87 µM and 7.05 µM
- GI50 (HCT-116 colon): 0.845 µM and 1.78 µM
- TGI (HCT-116 colon): > 25 µM
- GI50 (HCT-15 colon): 7.16 µM and 7.13 µM
- TGI (HCT-15 colon): > 25 µM and 24.5 µM
- GI50 (HL-60(TB) leukemia): 1.57 µM and 1.93 µM
- TGI (HL-60(TB) leukemia): 4.1 µM and 4.79 µM
- GI50 (HOP-62 NSCLC): 0.887 µM and 3.49 µM
- TGI (HOP-62 NSCLC): 4.17 µM and 15.1 µM
- GI50 (HOP-92 NSCLC): 1.72 µM
- TGI (HOP-92 NSCLC): > 7.33 µM
- GI50 (HS 578T breast): 0.783 µM and 1.04 µM
- TGI (HS 578T breast): > 7.17 µM
- GI50 (HT29 colon): 3.5 µM and 8.16 µM
- TGI (HT29 colon): > 25 µM
- GI50 (IGROV1 ovarian): 6.53 µM and 8.83 µM
- TGI (IGROV1 ovarian): > 25 µM
- GI50 (K-562 leukemia): 1.27 µM and 2.19 µM
- TGI (K-562 leukemia): > 25 µM
- GI50 (KM12 colon): 0.566 µM and 1.97 µM
- TGI (KM12 colon): 8.58 µM and 18.4 µM
- GI50 (LOX IMVI melanoma): 0.85 µM and 2.13 µM
- TGI (LOX IMVI melanoma): > 25 µM
- GI50 (M14 melanoma): 2.08 µM and 4.14 µM
- TGI (M14 melanoma): 6.99 µM and 9.39 µM
- GI50 (MALME-3M melanoma): 1.44 µM and 2.27 µM
- TGI (MALME-3M melanoma): 10.7 µM and > 19 µM
- GI50 (MCF7 breast): 0.755 µM and 1.77 µM
- TGI (MCF7 breast): > 24 µM
- GI50 (MDA-MB-231 breast): 1.06 µM and 5.66 µM
- TGI (MDA-MB-231 breast): > 25 µM
- GI50 (MDA-MB-435): 2.44 µM and 3.76 µM
- TGI (MDA-MB-435): > 19.5 µM and 18.4 µM
- GI50 (MOLT-4 leukemia): 0.476 µM and 0.886 µM
- TGI (MOLT-4 leukemia): 1.57 µM and 4.26 µM
- GI50 (NCI-H226 lung): 0.931 µM and 2.94 µM
- TGI (NCI-H226 lung): 6.26 µM and 15.5 µM
- GI50 (NCI-H23 lung): 1.11 µM and 3.98 µM
- TGI (NCI-H23 lung): 7.24 µM and 15.7 µM
- GI50 (NCI-H460 lung): 0.764 µM and 5.92 µM
- TGI (NCI-H460 lung): > 25 µM
- GI50 (NCI-H522 lung): 0.508 µM and 0.532 µM
- TGI (NCI-H522 lung): 1.58 µM and 1.88 µM
- GI50 (NCI/ADR-RES ovarian): 3.5 µM and 5.42 µM
- TGI (NCI/ADR-RES ovarian): > 25 µM
- GI50 (OVCAR-3 ovarian): 0.189 µM and 0.756 µM
- TGI (OVCAR-3 ovarian): > 6.36 µM and 3.42 µM
- GI50 (OVCAR-4 ovarian): 0.821 µM and 1.87 µM
- TGI (OVCAR-4 ovarian): 2.92 µM and 16.1 µM
- GI50 (OVCAR-5 ovarian): 2.91 µM and 7.56 µM
- TGI (OVCAR-5 ovarian): > 25 µM
- GI50 (OVCAR-8 ovarian): 0.75 µM and 1.73 µM
- TGI (OVCAR-8 ovarian): > 25 µM
- GI50 (PC-3 prostate): 3.1 µM and 2.08 µM
- TGI (PC-3 prostate): > 22.9 µM
- GI50 (RPMI-8226 leukemia): 5.6 µM and 7.17 µM
- TGI (RPMI-8226 leukemia): > 21.2 µM
- GI50 (RXF 393 renal): 0.856 µM and 2.12 µM
- TGI (RXF 393 renal): 2.47 µM and 7.85 µM
- GI50 (SF-268 CNS): 0.678 µM and 0.792 µM
- TGI (SF-268 CNS): 2.28 µM and 2.72 µM
- GI50 (SF-295 CNS): 4.02 µM and 7.28 µM
- TGI (SF-295 CNS): > 23.2 µM
- GI50 (SF-539 CNS): 0.626 µM and 1.08 µM
- TGI (SF-539 CNS): 2 µM and 4.91 µM
- GI50 (SK-MEL-2 melanoma): 0.644 µM and 1.15 µM
- TGI (SK-MEL-2 melanoma): 1.36 µM and 3.07 µM
- GI50 (SK-MEL-28 melanoma): 0.858 µM and 2.49 µM
- TGI (SK-MEL-28 melanoma): 2.55 µM and 10.9 µM
- GI50 (SK-MEL-5 melanoma): 1.04 µM and 2.74 µM
- TGI (SK-MEL-5 melanoma): > 10.5 µM and 15.3 µM
- GI50 (SK-OV-3 ovarian): 3.84 µM and 9.75 µM
- TGI (SK-OV-3 ovarian): > 25 µM
- GI50 (SN12C renal): 0.982 µM and 3.21 µM
- TGI (SN12C renal): > 25 µM
- GI50 (SNB-19 CNS): 0.885 µM and 2.16 µM
- TGI (SNB-19 CNS): > 25 µM
- GI50 (SNB-75 CNS): 0.857 µM and 3.64 µM
- TGI (SNB-75 CNS): 2.61 µM and 10 µM
- GI50 (SR leukemia): 0.213 µM and 0.518 µM
- TGI (SR leukemia): > 5.71 µM and 2.11 µM
- GI50 (SW-620 colon): 0.891 µM and 1.8 µM
- TGI (SW-620 colon): > 21.9 µM
- GI50 (T-47D breast): 0.781 µM and 2.36 µM
- TGI (T-47D breast): 2.16 µM and > 20 µM
- GI50 (TK-10 renal): 4.2 µM and 7.65 µM
- TGI (TK-10 renal): 17.1 µM and 19.1 µM
- GI50 (U251 CNS): 0.715 µM and 1.63 µM
- TGI (U251 CNS): > 8.07 µM
- GI50 (UACC-257 melanoma): 3.11 µM and 6.09 µM
- TGI (UACC-257 melanoma): 19 µM and 16.6 µM
- GI50 (UACC-62 melanoma): 1.05 µM and 3.67 µM
- TGI (UACC-62 melanoma): 4.71 µM and 9.09 µM
- GI50 (UO-31 renal): 4.51 µM and 6.2 µM
- TGI (UO-31 renal): > 21.3 µM

— PubChem BioAssay (NCI)
